Consider 6 compounds from patent publication US11274079B2 (DALIAN INSTITUTE OF CHEMICAL PHYSICS, CHINESE ACADEMY OF …, priority 2018, dated 2022).

The target in one assay is T1, M3 receptor (Homo sapiens, UniProt P20309).
T1 construct: HT-29 cell model endogenously highly expressing the M3 receptor; endogenous in cells; host or cells: HT-29
As to the kind of experiment: DMR assay, antagonism of acetylcholine in HT-29 cells endogenously expressing the M3 receptor. The format is cell-based. The following applies: HT-29 cells, DMR, acetylcholine 16 μM, 1 h pretreatment, time point 30 min.

In the next assay the target is T2, M1 receptor (Homo sapiens, UniProt P11229).
T2 construct: expressed in transfected cells; host or cells: CHO-K1
T2 sequence (P11229 1-460): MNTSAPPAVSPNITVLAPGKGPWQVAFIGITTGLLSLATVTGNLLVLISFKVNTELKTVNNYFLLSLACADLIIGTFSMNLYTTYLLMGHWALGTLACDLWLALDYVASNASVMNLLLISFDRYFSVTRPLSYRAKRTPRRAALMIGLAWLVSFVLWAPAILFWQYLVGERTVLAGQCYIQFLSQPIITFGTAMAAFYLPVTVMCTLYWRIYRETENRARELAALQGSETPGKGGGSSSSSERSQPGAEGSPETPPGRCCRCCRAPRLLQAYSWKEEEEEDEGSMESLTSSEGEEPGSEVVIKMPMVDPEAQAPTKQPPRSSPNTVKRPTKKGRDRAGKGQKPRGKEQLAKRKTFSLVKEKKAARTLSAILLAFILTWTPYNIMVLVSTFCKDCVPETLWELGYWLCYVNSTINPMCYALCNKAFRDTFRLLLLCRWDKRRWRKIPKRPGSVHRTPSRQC
As to the kind of experiment: DMR assay, antagonism of acetylcholine in CHO-K1 cells stably transfecting the M1 receptor. The following applies: CHO-K1-M1 cells, DMR, acetylcholine 1 μM, 1 h pretreatment, time point 5 min. It counts as cell-based.

The subject of assay [1] is isolated tracheal smooth muscle. As to the kind of experiment: Carbachol-induced contraction of isolated tracheal strip. The following applies: Cavia porcellus, read-out: IC50, diastolic effect on isolated tracheal smooth muscle.
Text: 1. Experimental Materials
2. Preparation of Tracheal Strip
The guinea pig is put to death by hammering it on the head, the chest cavity is quickly opened, and trachea is carefully isolated. […] The connective tissue and fat around the trachea are gently removed, and the trachea segment is quickly suspended and cut into tracheal strips with a blade (2-3 mm in width and 20 mm in length). […] The upper end of the tracheal strip is connected to a muscle tension transducer, and the load is adjusted to 1.5 g. The biological signal processing system is used to record the changes in muscular tension of tracheal smooth muscle. The perfusate is replaced once every 15 min, and the experiment is started after the tension is stabilized for 1 h. After each experiment, the smooth muscle is rinsed 3 to 5 times, and the next experiment is carried out after stabilization to the baseline.
3. Effects of Compounds Tested on Contraction of Isolated Tracheal Strip in Guinea Pig
After incubation of isolated tracheal for 1 h, 10 μm/L of carbachol is added to induce the minimum concentration (the concentration obtained from the dose-effect curve of carbachol) of the maximum tracheal smooth muscle contraction, and the changes in tension of the tracheal strip within 5 min are recorded. When the tension of the tracheal smooth muscle reaches the highest point, the compounds tested with a concentration of 1 nm/L are added, and the changes in tension of the tracheal strip within 5 min are recorded. […] Then, the concentration difference is decreased, that is, the concentration is increased by three or four times to repeat the above administration, which makes the tension decrease continuously to the base value (initial load). The changes in tension of the tracheal stop within 5 min are recorded. The dose-effect relationship between the compounds tested and the contractile activity of the isolated tracheal smooth muscle in the guinea pig is obtained. The curve of the changes in tension of the tracheal smooth muscle in each group is recorded and the inhibition rate is calculated. After repeated experiments, IC50 value of each compound tested is calculated by taking points respectively.
The dose-effect relationship between solvent (DMSO) control group and the contractile activity of the isolated tracheal smooth muscle in the guinea pig is recorded. Inhibition Rate=(Tension before Administration−Tension after Administration)/Tension before Administration
A further assay relates to guinea pigs. As to the kind of experiment: Acetylcholine chloride/histamine spray-induced asthma, incubation period. The format is in vivo, guinea pig. The following applies: for asthma incubation period: 0.2 mM in normal saline sprayed 10 min, challenge after 10 min, recorded as 240 s if no convulsion and fall. As to the method:
On the first day, guinea pigs are placed in a 38×38×38 cm (about 55 L) of home-made container with an atomizing nozzle having a diameter of about 3 cm above the side wall. Ultrasonic atomizer (YUWELL, model 402AI) is used to spray normal saline containing acetylcholine chloride (20 g/L) and histamine (1 g/L) for 15 s. The incubation period of asthma of guinea pigs (also is called asthma incubation period, which is the time from the end of the spray to asthma attack, extreme breathing difficulty until convulsion and fall) is recorded after the cessation of spraying. Animals with an incubation period of less than 120 s are qualified sensitive animals.
2. Experimental Processes
On the second day, the qualified animals are selected for experiments, wherein one group (comprising 4 guinea pigs) is used as the control group, one group (comprising 4 guinea pigs) is experimented with positive medicine […] and one group (comprising 10 guinea pigs) is experimented with the drug to be tested. The animals are placed in a container, and sprayed with normal saline, tiotropium bromide and the compound to be tested. Both tiotropium bromide and the compound to be tested are soluble in normal saline at a concentration of 0.2 mM. After spraying for 10 min, the guinea pigs are taken out and put into another container of the same size. After 10 min, normal saline containing acetylcholine chloride (20 g/L) and histamine (1 g/L) is sprayed into the container for 15 s. The incubation periods of asthma of the guinea pigs are observed and recorded. If there is no convulsion and fall after 240 s, the incubation period is recorded as 240 s.

T1 sequence (P20309 whole entry): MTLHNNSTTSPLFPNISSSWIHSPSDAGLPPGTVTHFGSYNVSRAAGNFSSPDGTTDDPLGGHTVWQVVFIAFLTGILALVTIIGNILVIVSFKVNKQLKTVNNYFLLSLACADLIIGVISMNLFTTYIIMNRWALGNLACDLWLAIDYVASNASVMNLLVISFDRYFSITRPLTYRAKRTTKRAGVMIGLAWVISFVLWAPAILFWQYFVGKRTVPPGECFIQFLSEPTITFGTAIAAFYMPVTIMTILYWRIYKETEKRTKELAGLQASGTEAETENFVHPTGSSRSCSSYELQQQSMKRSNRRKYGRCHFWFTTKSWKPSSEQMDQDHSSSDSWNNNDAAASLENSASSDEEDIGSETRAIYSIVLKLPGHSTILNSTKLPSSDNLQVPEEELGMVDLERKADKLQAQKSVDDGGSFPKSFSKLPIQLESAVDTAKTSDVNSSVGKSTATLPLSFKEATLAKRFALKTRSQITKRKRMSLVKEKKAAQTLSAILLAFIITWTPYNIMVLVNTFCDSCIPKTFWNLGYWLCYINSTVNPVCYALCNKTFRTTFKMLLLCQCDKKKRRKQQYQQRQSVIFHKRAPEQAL

For `C[N+]1(C)CCCCC1CC(c1ccccc1O)c1ccccc1O` (racemic) [I-3-Br, 2-[2,2-bis(2-hydroxy-phenyl)ethyl]-N,N-dimethylpiperidine Bromide], the half-maximal inhibitory concentration (IC50) turned out to be 15.4 ± 2.9 nM on M3 receptor, 23.4 ± 6.6 nM at M1 receptor and 4.1 nM in assay [1].
As to `Cc1ccc(O)c(C(CC2CCCC[N+]2(C)C)c2ccccc2)c1` (single isomer, unassigned) [I-4a-Br, 2-[2-(2-hydroxy-5-methyl-phenyl)-phenethyl]-N,N-dimethylpiperidine Bromide], the IC50 on M3 receptor was 35.5 ± 13.9 nM; on M1 receptor it was 36.2 ± 6.1 nM; in assay [1] it was 13.3 nM.
Taken in the same sequence, the figures for `C[N+]1(C)CCCCC1CC(c1ccccc1)c1ccccc1O` (stereo not drawn) [I-2a-Br, 2-[2-(2-hydroxy-phenyl)-phenethyl]-N,N-dimethylpiperidine Bromide] were 33.8 ± 3.6 nM, 53.8 ± 4.6 nM and 6.4 nM.
For `Cc1ccc(O)c(C(CC2CCCC[N+]2(C)C)c2ccccc2)c1.[Br-]` (stereo not drawn) [I-4a-1-Br, 2-[2-(2-hydroxy-5-methyl-phenyl)-phenethyl]-N,N-dimethylpiperidine Bromide], the IC50 was found to be 39.3 ± 10.9 nM at M3 receptor and 28.8 ± 11.3 nM on M1 receptor. In the assay with guinea pigs, this compound yielded an asthma incubation period of 240 s. Further, the “efficacy in asthma model, in words” value in the assay with guinea pigs (0.2 mM spray) is on record as “good efficacy”.
In the case of `Cc1ccc(O)c(C(CC2CCCC[N+]2(C)C)c2ccccc2F)c1` (stereo not drawn) [I-7, 2-[2-(2-fluorophenyl)-2-(2-hydroxy-5-methyl-phenyl)-ethyl]-N,N-dimethylpiperidine Bromide], the concentration for half-maximal inhibition (IC50) on M3 receptor came out at 103 ± 10 nM; at M1 receptor it was 320 ± 20 nM; in assay [1], 33.4 nM.
The compound `C[N+]1(C)[C@@H]2C[C@@H](OC(=O)C(O)(c3cccs3)c3cccs3)C[C@H]1[C@@H]1O[C@@H]12.[Br-]` [Tiotropium Bromide, reference compound] had an asthma incubation period in the assay with guinea pigs of 238.9 ± 5.0 s. Also, the IC50 in assay [1] came out at 33 nM.

A word on the IC50: it is the midpoint of a concentration-inhibition curve.
